The values that follow come from ChEMBL document CHEMBL1201862, “PubChem BioAssay data set” (2004).

Assay [1] concerns the target Fructose-bisphosphate aldolase (Mycobacterium tuberculosis, UniProt P9WQA3). Kind of assay: Fluorescence-based biochemical high throughput dose response assay for inhibitors of the fructose-bisphosphate aldolase (FBA) of M. tuberculosis. The assay is classed as functional.
The target in assay [2] is Matrix metalloproteinase-14 (Homo sapiens, UniProt P50281). The assay can be described thus: Dose Response confirmation of uHTS hits for a small molecule inhibitors of MT1-MMP activation in a fluorescence assay set 2. The assay is classed as functional.
The nature of assay [3]: non-specific cell cytotoxicity, dose response, cytotoxicity control for PAX8 inhibitor project, plate reader, dry powder samples (AID 743021). Format: functional, cell-based.
A short description of assay [4]: Concentration-dependent survival of SW480 colon cancer line, luminescence detection with CellTiter-Glo, half-maximal inhibitory concentration (AID 1117338). Format: functional. Background: Cellular ATP, detected with luciferase, serves as a proxy for viable cell number.
Another assay relates to P388/ADR. The assay can be described thus: cells. The assay is classed as functional. The following applies: Mus musculus.
The nature of assay [5]: HeLa 2N DNA content increase, dose response, cell-based, IC50 (AID 1117349). Format: functional.
Assay [6] is described as follows: cytotoxicity toward HCT116 cells – cell-based, CellTiter-Glo luminescence, IC50, dose response (AID 1117332). Format: functional. Particulars: HCT-116.
The nature of assay [7]: HeLa 4N DNA content increase, dose response, cell-based, IC50 (AID 1117351). The assay is classed as functional.
A short description of assay [8]: SNU-C1 cell viability reduction, dose response, CellTiter-Glo luminescence (AID 1117323). The assay is classed as functional, cell-based.
The next assay concerns P388. Kind of assay: cells. Format: functional. The following applies: Mus musculus.
Assay [9] is described as follows: cytotoxicity toward Colo320 cells – cell-based, CellTiter-Glo luminescence, IC50, dose response (AID 1117334). The following applies: COLO 320. Format: functional.
Assay [10] is described as follows: cytotoxicity toward HT-29 cells – cell-based, CellTiter-Glo luminescence, IC50, dose response (AID 1117330). Format: functional.
A short description of assay [11]: HCT116 cell viability decrease, GSK3B pretreatment – CellTiter-Glo, IC50, dose response (AID 1117339). The assay is classed as functional. The following applies: HCT-116.
A further assay has as its system SN12K1. The assay can be described thus: cells. The following applies: Homo sapiens. The assay is classed as functional.
A short description of assay [12]: RKO cell viability reduction, dose response, CellTiter-Glo luminescence (AID 1117322). The assay is classed as functional.
Assay [13] is described as follows: CellTiter-Glo luminescent dose response of DLD-1 viability loss (AID 1117352). Format: functional.
The target of assay [14] is T1, Oxysterols receptor LXR-beta (Homo sapiens, UniProt P55055).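 Note: Cell-based luminescence dose-response assay of agonist activity at LXR, run as a confirmatory counterscreen to a daf-12 agonist screen; HEK293 cells with Gal4-LXR fusion and GAL4-driven luciferase reporter; agonist potency from rising luciferase signal of a Gal4-LXR reporter.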
T1 sequence (P55055 whole entry): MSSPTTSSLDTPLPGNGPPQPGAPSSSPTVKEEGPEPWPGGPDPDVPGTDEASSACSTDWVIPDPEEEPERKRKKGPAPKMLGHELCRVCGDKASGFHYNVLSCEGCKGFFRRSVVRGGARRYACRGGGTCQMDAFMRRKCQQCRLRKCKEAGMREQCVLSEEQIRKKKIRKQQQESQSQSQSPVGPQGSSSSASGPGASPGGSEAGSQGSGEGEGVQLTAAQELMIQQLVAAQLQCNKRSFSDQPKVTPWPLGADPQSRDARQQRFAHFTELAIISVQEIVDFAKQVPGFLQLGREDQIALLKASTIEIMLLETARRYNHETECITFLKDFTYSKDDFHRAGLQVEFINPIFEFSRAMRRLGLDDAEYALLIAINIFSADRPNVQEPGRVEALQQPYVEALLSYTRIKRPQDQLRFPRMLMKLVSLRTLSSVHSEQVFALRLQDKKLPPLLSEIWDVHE
Format: functional, cell-based.

Assay [15] can be described thus: HepG2 cell cytotoxicity, dose response, cytotoxicity control, ATP luminescence, cherry-pick, activator set 2 (AID 1053143). The assay is classed as functional, cell-based.
Assay [16] can be described thus: HepG2 cell cytotoxicity, dose response, cytotoxicity control for Shn3 inhibitor project, CellTiter-Glo, cherry-picked (AID 624134). Format: functional, cell-based.
The next assay relates to A549. Kind of assay: A549 cell toxicity, dose response, cytotoxicity control, plate reader, cherry-pick samples (AID 687028). The following applies: Homo sapiens. Format: functional, cell-based.
A short description of assay [17]: inhibitors of SNCA 5'UTR-driven reporter translation, confirmation, H4 neuroglioma cells, luminescence (AID 1988). The assay is classed as functional, cell-based.
Assay [18] in a line: Shn3 3'UTR reporter inhibitors, dose response, cell-based, Clone20 osteoblasts, firefly luciferase, cherry-picked (AID 624132).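 Note: firefly luciferase luminescence from reporter carrying the Shn3 3'UTR in osteoblasts.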 The assay is classed as functional.
Assay [19] concerns the target T2, Ubiquitin-conjugating enzyme E2 N (Homo sapiens, UniProt P61088).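 Note: Dose-response confirmation in a TR-FRET assay detecting UBC13-driven polyubiquitin chain formation, inhibition measured.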
T2 sequence (P61088 whole entry): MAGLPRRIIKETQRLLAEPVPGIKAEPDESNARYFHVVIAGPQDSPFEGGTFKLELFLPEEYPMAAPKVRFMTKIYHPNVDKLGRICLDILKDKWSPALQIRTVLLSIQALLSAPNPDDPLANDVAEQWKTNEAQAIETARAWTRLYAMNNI
The assay is classed as functional.

Assay [20] can be described thus: inhibitors of firefly luciferase expression or activity, dose response, H4 neuroglioma cells, luminescence (AID 1990). The assay is classed as functional, cell-based.
Assay [21] in a line: Luminescence Cell-Based Dose Response HTS to Identify Inhibitors of 5'UTR Stem-Loop Driven Prion Protein mRNA Translation in H4 Neuroglioblastoma Cells. [Related pubchem assays: 1827 (Project Summary), 1813 (Primary HTS)]. Format: functional.
Assay [22] can be described thus: HEp-2 cell cytotoxicity, dose response, cytotoxicity control for RSV inhibitor project, HTS (AID 2410). Format: functional. The following applies: human respiratory syncytial virus.
The nature of assay [23]: control 3'UTR Renilla luciferase suppression, dose response, counter-screen for Shn3 inhibitor project, cell-based, Clone20-Shn3RL, cherry-picked (AID 624133). Format: functional.
Assay [24] is described as follows: growth suppression of PTEN-null colon cells, dose response, cell-based, HCT116 PTEN knockout (AID 1047).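 Note: HCT116 colon tumor cells with PTEN knocked out; cells exposed to compound for 60 hours before readout; potency for loss of cell viability measured by luminescence.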 Format: functional.
The nature of assay [25]: inhibitors of PGC1a acetylation in cells, dose response, cell-based, cherry-picked samples (AID 720514).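 Note: potency may reflect raised or lowered acetylation signal.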 Format: functional.
Assay [26] deals with Induced myeloid leukemia cell differentiation protein Mcl-1 (Homo sapiens, UniProt Q07820). The assay is classed as functional.
Assay [27] deals with T3, Microphthalmia-associated transcription factor (Homo sapiens, UniProt O75030).
T3 sequence (O75030 whole entry): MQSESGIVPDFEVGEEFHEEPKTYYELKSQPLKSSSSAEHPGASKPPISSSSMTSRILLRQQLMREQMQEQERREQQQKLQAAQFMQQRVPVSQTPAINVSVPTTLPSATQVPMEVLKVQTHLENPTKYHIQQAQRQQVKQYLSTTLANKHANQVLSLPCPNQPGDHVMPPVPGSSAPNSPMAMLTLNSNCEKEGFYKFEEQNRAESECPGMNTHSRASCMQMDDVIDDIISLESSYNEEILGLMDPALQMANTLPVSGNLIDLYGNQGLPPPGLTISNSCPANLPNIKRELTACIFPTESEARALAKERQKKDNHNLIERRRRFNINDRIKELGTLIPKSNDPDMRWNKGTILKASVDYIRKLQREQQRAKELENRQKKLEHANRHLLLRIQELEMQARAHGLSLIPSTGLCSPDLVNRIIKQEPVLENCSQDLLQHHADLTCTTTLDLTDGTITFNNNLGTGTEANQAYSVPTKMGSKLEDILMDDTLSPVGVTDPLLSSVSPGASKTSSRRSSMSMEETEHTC
The assay can be described thus: TRPM1 promoter luciferase signal decrease, dose response, MITF inhibitor project, cell-based, SK-MEL-5, cherry-picked, set 3 (AID 493073).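 Note: SK-MEL-5 melanoma cells with luciferase driven by the MITF target TRPM1 promoter.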 The assay is classed as functional.

The nature of assay [28]: growth suppression of beta-catenin-knockout colon cells, dose response, cell-based, HCT116, human colon tumor (AID 1045).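 Note: HCT116 colon tumor cells with beta catenin knocked out; cells exposed to compound for 60 hours.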 The assay is classed as functional.
A short description of assay [29]: THP-1 cell cytotoxicity, dose response, cytotoxicity control for Vif-APOBEC3G degradation inhibitor project, THP-1 cells (AID 1117359). Particulars: Human immunodeficiency virus 1, THP-1. The assay is classed as functional.
Assay [30] addresses Potassium channel subfamily K member 9 (Homo sapiens, UniProt Q9NPC2). The assay can be described thus: TASK3 (KCNK9) channel inhibitors, thallium flux, SAR follow-up, selectivity assay for TASK1 inhibitor project, cell-based, FluxOR thallium flux, concentration-response (AID 652211).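 Note: potency is for inhibitors of the channel.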 The assay is classed as functional.
The target in assay [31] is Potassium channel subfamily K member 3 (Homo sapiens, UniProt O14649). Kind of assay: TASK1 (KCNK3) potassium channel inhibitors, SAR follow-up, CHO cells, FluxOR thallium flux (AID 652212). Format: functional.

Molecules are shown by their SMILES. Calls of active or inactive are those of the source.

Chain of Fructose-bisphosphate aldolase (P9WQA3 whole entry): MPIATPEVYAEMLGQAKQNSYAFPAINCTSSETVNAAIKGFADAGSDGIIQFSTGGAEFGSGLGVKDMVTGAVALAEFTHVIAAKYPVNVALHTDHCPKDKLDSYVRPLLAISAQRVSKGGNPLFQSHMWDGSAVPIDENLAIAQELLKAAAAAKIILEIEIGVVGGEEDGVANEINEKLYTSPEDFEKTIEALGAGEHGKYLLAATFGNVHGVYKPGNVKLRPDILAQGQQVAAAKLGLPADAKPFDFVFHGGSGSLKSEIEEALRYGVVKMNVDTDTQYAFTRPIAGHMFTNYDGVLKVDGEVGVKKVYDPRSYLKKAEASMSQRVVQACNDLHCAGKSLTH
Chain of Potassium channel subfamily K member 9 (Q9NPC2 whole entry): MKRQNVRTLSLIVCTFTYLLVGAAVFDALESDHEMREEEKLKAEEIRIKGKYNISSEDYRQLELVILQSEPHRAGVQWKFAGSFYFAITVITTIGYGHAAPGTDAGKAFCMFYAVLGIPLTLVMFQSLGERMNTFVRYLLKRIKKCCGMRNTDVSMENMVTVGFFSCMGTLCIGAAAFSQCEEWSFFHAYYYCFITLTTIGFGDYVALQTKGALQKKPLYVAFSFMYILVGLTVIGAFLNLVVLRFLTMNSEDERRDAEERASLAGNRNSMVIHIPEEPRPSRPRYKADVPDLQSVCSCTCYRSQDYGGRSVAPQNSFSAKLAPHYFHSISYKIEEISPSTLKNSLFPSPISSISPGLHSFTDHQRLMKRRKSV
Chain of Induced myeloid leukemia cell differentiation protein Mcl-1 (Q07820 whole entry): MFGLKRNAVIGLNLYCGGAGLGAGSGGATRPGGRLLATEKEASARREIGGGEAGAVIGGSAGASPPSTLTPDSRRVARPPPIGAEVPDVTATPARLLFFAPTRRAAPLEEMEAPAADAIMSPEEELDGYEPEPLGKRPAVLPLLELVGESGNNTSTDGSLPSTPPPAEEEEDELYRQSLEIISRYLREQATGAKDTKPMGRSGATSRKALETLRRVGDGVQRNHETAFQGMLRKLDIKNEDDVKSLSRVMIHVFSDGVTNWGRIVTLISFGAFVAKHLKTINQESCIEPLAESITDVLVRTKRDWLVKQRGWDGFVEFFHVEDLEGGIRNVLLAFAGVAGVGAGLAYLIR
Chain of Potassium channel subfamily K member 3 (O14649 whole entry): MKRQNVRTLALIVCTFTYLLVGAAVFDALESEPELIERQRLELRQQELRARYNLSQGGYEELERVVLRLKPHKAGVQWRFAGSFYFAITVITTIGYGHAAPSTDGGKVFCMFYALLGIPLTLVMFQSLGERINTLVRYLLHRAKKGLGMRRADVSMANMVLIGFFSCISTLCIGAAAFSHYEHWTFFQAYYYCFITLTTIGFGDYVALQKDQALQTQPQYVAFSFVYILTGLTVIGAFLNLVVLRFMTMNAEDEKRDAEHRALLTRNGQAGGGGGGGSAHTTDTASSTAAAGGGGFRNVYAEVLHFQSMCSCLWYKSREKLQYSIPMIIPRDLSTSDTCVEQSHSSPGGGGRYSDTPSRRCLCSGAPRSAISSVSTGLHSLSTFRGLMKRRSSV

As to `Cc1cc(-c2ccc(Cl)cc2)n2nc(N)nc2n1`, in assay [1], the IC50 is 1.4 µM (active).

Regarding `COc1ccc(OCC(=O)NNc2c3ccccc3nc3ccccc23)cc1`, in [2], the IC50 is > 80 µM (inactive).

For `Nc1nc2[nH]cnc2c(=S)[nH]1` [THIOGUANINE], the half-maximal activity concentration (AC50) in [3] is 1.99 µM (active). Besides, the IC50 was 0.402 µM (active) in assay [4]; > 10 µM (inactive) in assay [5]; 0.139 µM (active) in [6]; > 10 µM (inactive) in assay [7]; 4.4 µM (active) in assay [8]; 0.373 µM (active) in [9]. The IC50 was 0.0493 µM (active) in [10], 0.163 µM (active) in [11], 0.343 µM (active) in assay [12] and 0.108 µM (active) in assay [13]. Also, the GI50 is 0.181 µM (active) in the assay on P388/ADR, 0.0762 µM (active) with P388 and 0.281 µM (active) in the assay on SN12K1.

For `Cc1ccc(-c2cnc3ccccc3n2)cc1C`, the EC50 (in “cells”; in [14]) was > 67.6 µM (inactive) each time. Besides, the AC50 in assay [15] is 26 µM (active).

Take `CCc1ccc(O)c(CNCCNCc2cc(CC)ccc2O)c1`: the AC50 in [16] was 15.6 µM (active); in the assay with A549 it was 19.8 µM (active); in [18], 1.38 µM (active); in assay [23] it was 8.22 µM (active). Also, the EC50 in assay [17] was 9.33 µM (active); in assay [20], 11 µM (active); in assay [21] it was 12 µM (active). In addition, the IC50 in assay [19] is > 20 µM (inactive). Further, the CC50 in assay [22] was 9.08 µM (active).

As for `C=CCn1c(C)cc(C(=O)Cn2ncc(Cl)c(Cl)c2=O)c1C`, the results for the EC50 in assay [24] and in assay [28] were 3.08 µM (active) and 2.12 µM (active), respectively. Further, the AC50 is 5.68 µM (active) in assay [25] and 9.97 µM (active) in assay [27]. For the same molecule, in assay [26], the IC50 is 5.14 µM (active).

On to `CCOc1c2ccc(C(=O)NC3CCCc4ccccc43)cc2nn1CC` (configuration not stated), for which, in assay [1], the IC50 was 1.64 µM (active).

In the case of `Cc1ccccc1S(=O)(=O)Cc1ccc(C(=O)NCCCN2CCC(C)CC2)o1`, the CC50 in assay [29] is > 40 µM (active).

With `Cc1cccc(C(=O)Nc2cccc(NC(=O)c3cccc(C(F)(F)F)c3)c2)c1`, the IC50 in assay [30] is 3.06 µM (active); in [31] it was 0.009 µM (active).

In general, IC50 refers to the concentration at which inhibition is half-maximal. The AC50 is the concentration at which the activity in the assay is half-maximal. What is called GI50 is the concentration that inhibits growth by half. Broadly, the EC50 is the midpoint of the concentration-response curve. Usually CC50 stands for the concentration giving 50% cytotoxicity.
